Measured values as given in patent publication US10752900B2, “Oligonucleotides for modulating gene expression and uses thereof” (BIOGENERA S.P.A., priority 2012, dated 2020).

What was measured:
MYCN gene [1] = assay: QT-PCR, MYCN mRNA in Kelly cells; assay type: cell-based, human; settings: for mRNA inhibition (%): Table 1, PNA 1 μM, RNA extracted after 24 hours; for mRNA inhibit. (%): Table 11, MYCN, 2.5 μM
Description: (§1) For the purpose of assessing the ability of the oligonucleotides of the present invention to modulate the expression of the target genes, their ability to reduce the quantity of messenger RNA was analyzed using the Real-Time PCR technique.
(§2) For this purpose, use was made of 24-well plates, which were seeded with 5.0×10^4 cells with 0.3 ml of OPTI-MEM (GIBCO BRL) medium, 4% FBS and 2 mM L-glutammine (experiments in triplicate) per well.
(§3) The cells were incubated for 24 hours at 37° C., in an atmosphere containing 5% CO2 to permit adherence to the base of the wells.
Each oligonucleotide analyzed, except for the PNA oligonucleotides, was incubated beforehand with 2 μl of Lipofectamine 2000 (Invitrogen), with 0.3 mL of serum-free OPTI-MEM (GIBCO BRL) medium.
(§4) For each well, the oligonucleotides were analyzed at the following final concentrations: • the antisense oligonucleotides siRNA and siRNA gapmer (i.e. the oligonucleotides containing one or more monomers of chemically modified nucleic acids at the 3′ or 5′ end, while in the central portion they have monomers of nucleic acids that have not been modified or have been modified at the level of the phosphodiester bond as a phosphorothioate bond) were used at 200 nM; • the antisense oligonucleotides containing phosphorothioate DNA monomers, the RNA antigene oligonucleotides (agRNA) and the oligonucleotides containing DNA monomers and LNA monomers were used at 10 μM; • the morpholino oligonucleotides were used at a concentration of 1 μM, and • the PNA oligonucleotides were administered at a concentration of 1 μM.
(§5) The cells were treated with the oligonucleotides, adding FBS up to 4% 6 hours after administration of the same. After 24 hours the total RNA was extracted from each well and purified using the RNeasy Mini Kit (QIAGEN).
(§6) Assays were performed on 8 cell lines obtained from 5 different human tumours which are correlated with MYCN expression, i.e.: • as a neuroblastoma model use was made of the cell lines Kelly, IMR-32 (where the MYCN gene is amplified and superexpressed) and SKNBE2c and LAN1 (where the MYCN gene is amplified and superexpressed and the p53 gene is mutated); • as a rabdomiosarcoma model use was made of the cell line RH30, where the MYCN gene is amplified and superexpressed; • as a Wilms' tumour model use was made of the cell line WiT49, where the MYCN gene is amplified and superexpressed; • as a retinoblastoma model use was made of the cell line Y79, where the MYCN gene is amplified and superexpressed; and • as a model of small cell lung cancer use was made of the cell line H69 where the MYCN gene is amplified and superexpressed.
(§7) As a control, use was made of the same cell lines as listed above treated with sterile water instead of oligonucleotides. Each RNA sample was quantified (in duplicate) using a NanoDrop ND-1000 spectrophotometer (NanoDrop Technologies). The first strand of cDNA was produced using the cDNA Synthesis Kit for RT-PCR (Roche). For the cDNA synthesis reaction a total of 1 μg of RNA was used. For the real-time PCR, 10 ng of cDNA in a final volume of 20 μl was used with SYBR Green Master Mix 2× (Applied Biosystems) (3 identical experiments were conducted in triplicate). Two housekeeping genes were used as positive controls: GAPDH and beta-actin (ACTB).
(§8) The conditions of the QT-PCR reaction were: 10 min at 95° C., 20 sec at 95° C., and 30 sec at 60° C., for 50 cycles.
(§9) As far as the PNA oligonucleotides are concerned, the results regarding their ability to inhibit the transcription of the MYCN gene and proliferation of Kelly cells are shown in Table 1.
(§10) The oligonucleotides were tested in vitro (at a concentration of 2.5 μM) to determine their ability to inhibit the transcription of the gene they are directed against by measuring the levels of the gene messenger in cellular models in which the gene of interest is overexpressed. The methods used are the ones described in example 1. […]

Phoenix = assay: Cellular proliferation, Phoenix fibroblastoid-type cells; assay type: cell-based; settings: Table 1; cells that do not express MYCN
Description: (§11) Cell viability was assessed by means of an ATP-Lite assay (Luminescence ATP Detection Assay System, PerkinElmer) and is reported as the ratio between the average signal of the treated wells compared to the average value of the wells of untreated control cells. The cells were processed following the instructions provided with the kit.
(§12) Moreover, the oligonucleotides having SEQ ID NO 1-23 were administered in lines of fibroblastoid-type cells (NIH-3T3 and Phoenix) and the results are shown in Table 1 (last two columns). […]

NIH-3T3 = assay: Cellular proliferation, NIH-3T3 fibroblastoid-type cells; assay type: cell-based; settings: Table 1; cells that do not express MYCN
Description: as §11, §12

Kelly cells = assay: Cellular proliferation assay (ATP-Lite), Kelly cells; assay type: cell-based, human
Description: (§13) For the purpose of assessing the gene modulation ability of the oligonucleotides of the present invention, the effect of their administration on cell viability was determined.
(§14) For this purpose 5×10^3 cells per well were seeded into 96-well cell culture plates (experiments conducted in triplicate) with 100 μl of OPTI-MEM (GIBCO BRL) medium containing 4% FBS and 2 mM of L-glutammine.
(§15) The PNA oligonucleotides were administered at different concentrations (1 μM-2.5 μM-5 μM-10 μM) in order to observe a dose-effect relationship.
As regards all the other oligonucleotides, the concentrations at which they administered are listed in the paragraph:
(§16) The viability of the treated cells was determined at 48, 72, 96 and 168 hours after treatment.
as §11
(§17) The assays were performed on the same cell lines used to determine the levels of the MYCN gene messenger and listed in the paragraph: Treatments with Oligonucleotides—QT-PCR.
as §9
(§18) The ability of the tested oligonucleotides to inhibit the messenger of the gene of interest was measured and the proliferative capacity of the cells following administration of the oligonucleotides was also assessed.

MYCN gene [2] = assay: QT-PCR, MYCN mRNA in H69 cells; assay type: cell-based, human; settings: Table 11, MYCN, 2.5 μM
Description: as §1, §2, §3, §4, §5, §6, §7, §8
(§19) The PNAs having SEQ ID NO: 1-12 were also tested on different cell lines which overexpress MYCN (Kelly, SKNBE2c, RH30, WiT49, WERI-Rb1 1 and H69). The results are shown in Table 6 and confirm the selectivity and specificity of the inhibition effect of the PNAs on the product of protein translation of the MYCN gene.
as §10

H69 = assay: Cellular proliferation assay (ATP-Lite), H69 cells; assay type: cell-based, human; settings: Table 11, MYCN-directed PNA, 2.5 μM
Description: as §13, §14, §15, §16, §11, §17, §19, §18

[3] = Table 1, treated vs untreated control cells
[4] = Table 11, MYCN-directed PNA, 2.5 μM

| Substance | mRNA inhibition (%) (MYCN gene [1]) | Phoenix prolif. (%) (Phoenix) | NIH-3T3 prolif. (%) (NIH-3T3) | Cell Prolif. (%) (Kelly cells; [3]) | mRNA inhibit. (%) (MYCN gene [1]) | mRNA inhibit. (%) (MYCN gene [2]) | Cell Prolif. (%) (H69) | Cell Prolif. (%) (Kelly cells; [4]) |
| --- | --- | --- | --- | --- | --- | --- | --- | --- |
| SEQ ID NO: 13: PNA antigene oligonucleotide ACGCTCAGGGACCACG directed against MYCN (all peptide nucleic acid (PNA)) | 48% | 100% | 100% | 66% | – | – | – | – |
| SEQ ID NO: 14: PNA antigene oligonucleotide CCCGGACGAAGATGAC directed against MYCN (all peptide nucleic acid (PNA)) | 40% | 100% | 100% | 70% | – | – | – | – |
| SEQ ID NO: 15: PNA antigene oligonucleotide ACTGTGTTGGAGCCGA directed against MYCN (all peptide nucleic acid (PNA)) | 37% | 100% | 100% | 77% | – | – | – | – |
| SEQ ID NO: 16: PNA CCTGTCGTAGACAGCT without groups of consecutive guanines, negative control (PNA backbone, chemistry not fully specified) [reference compound] | 14% | 100% | 100% | 90% | – | – | – | – |
| SEQ ID NO: 17: PNA TGTGACAGTCATCTGT without groups of consecutive guanines, negative control (PNA backbone, chemistry not fully specified) [reference compound] | 10% | 100% | 100% | 98% | – | – | – | – |
| SEQ ID NO: 18: PNA GTGACAGTCATCTGTC without groups of consecutive guanines, negative control (PNA backbone, chemistry not fully specified) [reference compound] | 10% | 100% | 100% | 98% | – | – | – | – |
| SEQ ID NO: 19: PNA GACAGTCATCTGTCTG without groups of consecutive guanines, negative control (PNA backbone, chemistry not fully specified) [reference compound] | 5% | 100% | 100% | 100% | – | – | – | – |
| SEQ ID NO: 20: PNA CGTCGATTTCTTCCTC without groups of consecutive guanines, negative control (PNA backbone, chemistry not fully specified) [reference compound] | 5% | 100% | 100% | 100% | – | – | – | – |
| SEQ ID NO: 21: PNA CTCGAGTTTGACTCGC without groups of consecutive guanines, negative control (PNA backbone, chemistry not fully specified) [reference compound] | 1% | 100% | 100% | 100% | – | – | – | – |
| SEQ ID NO: 22: PNA GCGCCTCCCCTGATTT without groups of consecutive guanines, negative control (PNA backbone, chemistry not fully specified) [reference compound] | 2% | 100% | 100% | 100% | – | – | – | – |
| SEQ ID NO: 23: PNA ATATCCCCCGAGCTTC without groups of consecutive guanines, negative control (PNA backbone, chemistry not fully specified) [reference compound] | 2% | 100% | 100% | 100% | – | – | – | – |
| SEQ ID NO: 66: PNA TCGGGAGCAGTGGGCA directed against MYCN (all peptide nucleic acid (PNA); antigene PNA, further chemistry not fully specified) | – | – | – | – | 57% | 41% | 73% | 60% |
| SEQ ID NO: 67: PNA GCGGGTCGCGGGCACG directed against MYCN (all peptide nucleic acid (PNA); antigene PNA) | – | – | – | – | 60% | 42% | 71% | 56% |
| SEQ ID NO: 68: PNA TGGAGGTCGGCGCCGG directed against MYCN (all peptide nucleic acid (PNA); antigene PNA) | – | – | – | – | 74% | 62% | 49% | 35% |
| SEQ ID NO: 69: PNA TCGGCGGGAGGTAAGG directed against MYCN (all peptide nucleic acid (PNA); antigene PNA) | – | – | – | – | 76% | 67% | 45% | 30% |
